Patent US12257294B2, “Therapeutics for autoimmune disease: synthetic antigens” (DANMARKS TEKNISKE UNIVERSITET, priority 2018, dated 2025)
Non-standard residues stand in square brackets, D forms with d. No end group written: not given here. Cit = NC(=O)NCCC[C@H](N)C(=O)O; {NH2} = amino modification

Experiments:
[1] = test system: autoantibodies in plasma of RA patients, SLE and healthy controls; test: ELISA testing of PEP2 and PEP2-nanoconjugates; format: binding, human; conditions: 30 individuals
Procedure: Prior to ELISA, total amount of protein in each sample was estimated by Bradford method using standard curve of BSA control at known concentration (BioRad). In a maxisorb 96 well plate controls (BSA standard samples at concentrations 2 mg/mL, 1 mg/mL, 0.5 mg/mL and 0.1 mg/mL) and plasma sample were mixed with a Bradford reagent following manufacturer's protocol (BioRad). Plasma samples were used in dilution 1:100. Resulting absorbances at 595 nm were measured on Magellan Tecan microplate reader. Total amount of protein was calculated using standard curve.
ELISA: Maxisorb 96 well plates (NUNC Thermofisher) were coated with nanoparticle antigens/controls at concentration 8 μg/mL in 1×PBS overnight (room temperature; 100 μl/well). After washing with 1×PT (2×300 μl/well, PT: 50 μl Tween-20 in 1 L 1×PBS), the plates were blocked with 1×PTB (1 h, 37° C.; 100 μl/well, PTB: 20 g BSA, 50 μl Tween-20 in 1 L 1×PBS). Incubation with plasma at desired dilution was performed at room temperature for 1.5 h using diluent: 2 g BSA, 50 μl Tween-20 in 1 L 1×PBS (100 μl/well). This was followed by washing (2×300 μl 1×PBS) and incubation with HPR-labelled secondary antibody for 1.5 h at room temperature using same diluent and dilution of the secondary antibody provided by supplier (HPR-conjugated a-aIgG; Sigma). Subsequent washing (2×300 μl PT) and incubation with freshly prepared TMB-H2O2 solution (Sigma; 100 μl/well) was followed by adding a stop solution (1M H2SO4; 50 μl/well) and reading resulting absorbance values at 450 nm on Magellan Tecan microplate reader. Linear range for each antigen was determined via testing series of control dilutions (SLE and healthy controls in dilutions 1:50 to 1:2000). According to the results plasma dilutions 1:100-1:500 were within linear range of the assay for each antigen (R2>0.95).

[2] = Scanning electron microscopy, nanoparticle size; format: physicochemical; conditions: SEM
Procedure: Nanosight experiment: Nanosight measurement was done in Jang lab, DTU, using Nano sight equipment NTA Version: NTA 3.1 Build 3.1.46 with Script SOP Standard Measurement 03-47-19PM 20D. The cell of the equipment must be cleaned and unscrewed totally by ethanol and Millipore water. 500 μL diluted sample was injected three times for three run and the concentration of Nanoparticles was adjusted using water pH 6 if the concentration of samples doesn't fit the analysis. The size distribution data and the size with maximum number of particles were recorded, see FIG. 10.
Scanning Electron Microscopy (SEM): The morphology of the Chitosan nanoparticles (NP) was investigated using a Quanta FEG 3D scanning electron microscope (SEM). Samples were attached on metal stubs with double-sided adhesive carbon tape and coated with 6 nm of gold for better conductivity using a sputter coater (Leica Coater ACE 200). The average NP diameter was calculated using image J analysis software (National Institutes of Health, MD, USA) measured at different NP for each image.

[3] = test system: purified SLE-antibodies; test: ELISA selectivity of antigens D7 and D8 for purified SLE antibodies; format: binding; conditions: vs control samples comprising other antibodies
Procedure: SLE antibodies from sera were captured by affinity chromatography using NHS-sepharose and modified antigens as specified in table 9. […] Sera was pre-treated with CaCl2)/dextran to remove lipoproteins prior to applying to column. Sera sample was added to column; incubated for 4 min; washed at 0.5 ml/min flow rate with 20 mM PBS, 5 column volumes; and finally SLE antibodies were eluted with 3 column volumes of 100 mM glycine-HCl, 10% dioxane pH 2.5-3.
Standard ELISA was used to test the selectivity of D7 and D8. ELISA plates comprising antigens D7 and D8, respectively, were tested for their ability to specifically bind the purified SLE-antibodies compared to control samples comprising other antibodies.

[4] = test system: ACPA in RA sera (vs healthy controls and SLE); test: ELISA screening of citrullinated peptide library; format: binding, human
Excerpt: Citrullinated peptide antigens PEP1-PEP25 (SEQ ID No 9-33) (free amine and carboxy-termini) have been purchased from CALSO, Copenhagen, Denmark, and screened in ELISA of a cohort of 30 RA patients, 30 matched healthy controls and 30 patients with systemic lupus erythematosus. Overall, 16 peptide antigens […], from all the three groups, recognised RA sera.

[5] = test system: NZB/W mice; test: In vivo mice assay, disease activity index (DAI); conditions: control treatment, same regimen
Procedure: For the further in vivo test, a well-described mice model was selected: NZB/W mice, these have been used as a model for autoimmune disease since the early 1960s. Mice of this hybrid cross develop an autoimmune disease resembling human SLE. Nine-week-old NZB/W mice were kindly provided by […] group, Statens Serum Institute, Denmark; they were grown and tested for the presence of anti-dsDNA antibodies as described in example 6. […] Two mice were used for each conjugate. Mice received IV conjugate/control administration (same amount each time), with 12 h intervals for 5 days, and afterwards giving the same dose with 3 day interval over 3 weeks. […] Administration regimen for same as for nanoconjugate complexes: IV in tail vein with 12 h interval for 5 days, and afterwards giving the same dose with 3 day interval. Blood samples were withdrawn at time points: 24 h, 48 h, 1 week, 4 weeks after the beginning of each treatment. Plasma was centrifuged using Qiagen blood storage tubes and stored at -20° C. prior to analyses. ELISA analysis was performed using manufacturer's protocols in sera dilution 1:100 to 1:500. […] At early time points 10 nM conjugate works better than 1 nM.

[6] = test system: NZB/W F1 mice; test: SLE mice study, SLEDAI; format: in vivo; conditions: 2 weeks of treatment and 2 weeks after
Procedure: […]1 in 1×PBS was administered by IV in the tail vain every 12 h over 2 weeks, at a conjugate dosage of 160 μg/kg animal weight for 10 nM concentration. 30 mice were tested; 80% were female; average age 20 week; average weight/median 20.2 g (18.4 g-23.1 g). […] (HQ) was used as control, PO, 2 mg/kg, every 24 h over 2 weeks.

Row | Compound | Positive individuals, %: Disease control SLE [1] | Positive individuals, %: Healthy [1] | Positive individuals, %: Patients with RA [1] | Positive individuals, n: Disease control SLE [1] | Positive individuals, n: Healthy [1] | Positive individuals, n: Patients with RA [1] | Average nanoparticle size [2] | also measured
1 | NP2: Chitosan/Hyaluronic acid/PEG/PEP2 nanoconjugate, presumably non-covalent attachment of peptide to CS/HA (HHPGIAEFPS[Cit]GKSYSYSKQF; ends and bridges not checked; also: presumably non-covalently loaded in chitosan/hyaluronic acid/PEG nanoconjugate) | (7) % | (7) % | (53) % | 2 | 2 | 16 | 520 nm | 
2 | NH2-(TCCT)6:(AGGA)6 (TCCTTCCTTCCTTCCTTCCTTCCT; DNA, 5' {NH2}, backbone and methylation of C not given here; further chemistry not fully specified) [Conjugate D8, Pre-annealed amino-modified duplex antigen] |  |  |  |  |  |  |  | Selectivity for SLE antibodies [3]: selective for SLE antibodies
3 | HHP GIA EFP S(Cit)G KSY SYS KQF (HHPGIAEFPS[Cit]GKSYSYSKQF) [PEP2] | (7) % | (0) % | (57) % | 2 | 0 | 17 |  | Binding in RA samples (share of patients) ([4]; 30 RA patients): 57%; Binding in healthy controls (share) ([4]; 30 matched healthy controls): 0%; Binding in SLE (share of patients) ([4]; 30 patients with systemic lupus erythematosus): 7%
4 | NP1: Chitosan/Hyaluronic acid/PEG/PEP2 nanoconjugate, presumably covalent attachment of peptide via PEG to CS/HA (HHPGIAEFPS[Cit]GKSYSYSKQF; ends and bridges not checked; also: presumably covalently attached via PEG to chitosan/hyaluronic acid nanoconjugate) | (7) % | (3) % | (57) % | 2 | 1 | 17 | 100-300 nm | 
5 | Gentamicin [reference compound] |  |  |  |  |  |  |  | Effect on DAI [5]: only a short term drop in DAI
6 | Oc1ccc(O)cc1 [HQ, Hydroquinone] |  |  |  |  |  |  |  | SLEDAI (SLE disease activity index), course [6]: reduces SLEDAI faster; however the disease flares after day 17 in treatment
